Several values for one entry are separate records, joined by “and”; a condition that tells them apart may be missing. Identical values can stand only once. Entries after “also recorded” stand apart in the source; their conditions may differ. Like-named read-outs stand apart in the source and are kept apart here.
Tests used:
[1] = molecular target: Tdp1 (Homo sapiens, UniProt Q9NUW8); test: Tdp1 activity, real-time fluorescence oligonucleotide biosensor (FAM/BHQ1) assay; type: biochemical
Source text: An oligonucleotide real-time biosensor was used based on the ability of Tdp1 to remove fluorophore quenchers from the 3′-end of DNA, as previously described. The hexadecameric oligonucleotide carried 5(6)-carboxyfluorescein (FAM) at the 5′-end and the fluorophore quencher BHQ1 (Black Hole Quencher-1) at the 3′-end. Tdp1 inhibitors prevent removal of fluorophore quenchers, thus reducing fluorescence intensity.
The methodology has been reported in our previous work and consists of fluorescence intensity measurement in a reaction of quencher removal from a fluorophore quencher-coupled DNA oligonucleotide catalyzed by Tdp1. The reaction was carried out at different concentrations of inhibitors (the control samples contained 1% of DMSO, Sigma, St. Louis, MO, USA). The reaction mixtures contained Tdp1 buffer (50 mM Tris-HCl pH 8.0, 50 mM NaCl, and 7 mM β-mercaptoethanol), 50 nM biosensor, and an inhibitor being tested. Purified Tdp1 (1.5 nM) triggered the reaction. The biosensor (5′-[FAM] AAC GTC AGGGTC TTC C [BHQ]-3′) was synthesized in the Laboratory of Biomedical Chemistry at the Institute of Chemical Biology and Fundamental Medicine (Novosibirsk, Russia).
The reactions were incubated on a POLARstar OPTIMA fluorimeter (BMG LABTECH, GmbH, Ortenberg, Germany) to measure fluorescence every 55 s (ex. 485/em. 520 nm) during the linear phase (here, data from minute 0 to minute 8). The values of IC50 were determined using a six-point concentration response curve in minimum three independent experiments and were calculated using MARS Data Analysis 2.0 (BMG LABTECH, GmbH, Ortenberg, Germany).

[2] = system: HeLa cells; test: cells; conditions: for effect of topotecan on the cytotoxicity of the Tdp1 inhibitor (in words): Mann–Whitney U-test; for CC50: Homo sapiens, HeLa
Protocol: For comparison, the concentration of the inhibitors was increased to 20 μM.
Cytotoxicity of the compounds to HeLa (human cervical cancer) cell line was examined using the EZ4U Cell Proliferation and Cytotoxicity Assay (Biomedica, Vienna, Austria), according to the manufacturer’s protocols. The cells were grown in Iscove’s modified Dulbecco’s medium (IMDM) with 40 μg/mL gentamicin, 50 IU/mL penicillin, 50 μg/mL streptomycin (MP Biomedicals, Santa Ana, CA, USA), and 10% of fetal bovine serum (Biolot, St. Petersburg, Russia) in a 5% CO2 atmosphere. After formation of a 30–50%-monolayer, the tested compounds were added to the medium. The volume of the added reagents was 1/100 of the total volume of the culture medium, and the amount of DMSO (Sigma, St. Louis, MO, USA) was 1% of the final volume. Control cells were grown in the presence of 1% DMSO. The cell culture was monitored for 3 days. To assess the influence of the inhibitors on the cytotoxic effect of topotecan (ACTAVIS GROUP PTC ehf., Bucharest, Romania), 50% cytotoxic concentrations of topotecan and of each inhibitor were determined to attain a defined single-agent effect. Then, minimum two independent tests were performed with each inhibitor in combination with topotecan. When using a combination of drugs, Tdp1 inhibitors were first added, then topotecan was added immediately (within 10–15 min).

[3] = Intrinsic cytotoxicity, EZ4U cell proliferation and cytotoxicity assay; type: cell-based, human; conditions: human, HeLa cells, compound alone, 3 days, read-out: CC50 (half maximal cytotoxic concentration)
Source text: (§1) Top1 poisons are used as anticancer drugs for the treatment for various oncological diseases. Since Tdp1 is involved in the removal of DNA damage caused by Top1 poisons, the activity of Tdp1 can lead to the development of drug resistance. Thus, it is believed that Tdp1 inhibition can enhance the efficacy of Top1 poisons. Tdp1 inhibitors should have the lowest possible intrinsic toxicity to minimize potential side effects. Therefore, we studied the intrinsic cytotoxicity of the compounds against HeLa cells (cervical carcinoma). EZ4U cell proliferation and cytotoxicity assay results are shown in Figure 4 for the ligands with Tdp1 inhibitory activity.
(§2) The cell culture was monitored for 3 days.

[4] = system: HeLa cells; test: as above; type: cell-based, human; conditions: for Intrinsic toxicity to HeLa cells (in words): without topotecan; for CC50: compound alone, 3 days, read-out: CC50 (half maximal cytotoxic concentration)
Source text: as §1, §2

[5] = purified Tdp1 1.5 nM, 50 nM biosensor, read-out: IC50 (Tdp1 inhibiting activity)
[6] = Tdp1, values of supplementary Table S1 (less rounded), read-out: IC50 (µM), Table S1

Sequence of Tdp1 (Q9NUW8 whole entry): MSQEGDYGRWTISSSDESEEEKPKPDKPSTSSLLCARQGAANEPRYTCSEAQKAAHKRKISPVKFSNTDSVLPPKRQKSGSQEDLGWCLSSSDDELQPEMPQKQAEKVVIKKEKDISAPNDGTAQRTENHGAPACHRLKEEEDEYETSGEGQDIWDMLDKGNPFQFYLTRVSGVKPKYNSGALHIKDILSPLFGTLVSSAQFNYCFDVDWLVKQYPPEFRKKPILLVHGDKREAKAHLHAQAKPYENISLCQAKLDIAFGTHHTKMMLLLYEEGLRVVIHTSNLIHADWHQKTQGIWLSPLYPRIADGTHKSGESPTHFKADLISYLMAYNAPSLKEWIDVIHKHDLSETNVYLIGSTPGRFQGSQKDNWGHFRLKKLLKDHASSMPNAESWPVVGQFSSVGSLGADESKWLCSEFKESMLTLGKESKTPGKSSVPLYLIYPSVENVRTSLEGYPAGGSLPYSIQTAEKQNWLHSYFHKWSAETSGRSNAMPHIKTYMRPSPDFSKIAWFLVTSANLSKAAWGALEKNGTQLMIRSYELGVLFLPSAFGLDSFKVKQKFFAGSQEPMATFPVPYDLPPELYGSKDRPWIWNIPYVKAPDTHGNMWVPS

| Structure (SMILES) | IC50 [1, 5] | effect of topotecan on the cytotoxicity of the Tdp1 inhibitor (in words) ([2]; HeLa cells, 2 μM topotecan) | CC50 at 3 days [3] | IC50 [1, 6] | also measured |
| --- | --- | --- | --- | --- | --- |
| COc1cc(Br)c2c(c1OS(C)(=O)=O)CN1CCc3cc4c(cc3C1C2)OCO4 (stereo not shown) [12a] | > 15 µM | – | – | – | – |
| COc1cc(Br)c2c(c1OS(=O)(=O)c1c(F)c(F)cc(F)c1F)CN1CCc3cc4c(cc3C1C2)OCO4 (stereo not shown) [12g] | 1.3 ± 0.3 µM | significantly increased | 95 ± 5 µM | 1.33 ± 0.28 µM | sensitizing effect on the cytotoxicity of topotecan (in words) ([2]; HeLa cells): doubled; also recorded: significant effect; also recorded: pronounced sensitizing effect; also recorded: sensitized the cancer cells to topotecan |
| CCS(=O)(=O)Oc1c(OC)ccc2c1CN1CCc3cc4c(cc3C1C2)OCO4 (stereo not shown) [11b] | > 15 µM | – | – | – | – |
| CCCCS(=O)(=O)Oc1c(OC)cc(Br)c2c1CN1CCc3cc4c(cc3C1C2)OCO4 (stereo not shown) [12d] | 4 ± 1 µM | negligible or unreliable | > 100 µM | 4.06 ± 1.05 µM | Intrinsic toxicity to HeLa cells (in words) [4]: non-toxic up to 100 μM |
| COc1ccc2c(c1OS(=O)(=O)c1c(F)c(F)cc(F)c1F)CN1CCc3cc4c(cc3C1C2)OCO4 (stereo not shown) [11g] | 1.05 ± 0.05 µM | significantly increased | > 100 µM | 1.05 ± 0.05 µM | sensitizing effect on the cytotoxicity of topotecan (in words) ([2]; HeLa cells): doubled; also recorded: significant effect; also recorded: pronounced sensitizing effect; also recorded: sensitized the cancer cells to topotecan; decrease in cell survival in the presence of topotecan ([2]; HeLa cells, 2 μM topotecan, at all inhibitor concentrations): ~ 30%; living cells ([4]; 100 μM maximum concentration): 100%; Intrinsic toxicity to HeLa cells (in words) [4]: low toxicity; also recorded: nontoxic |
| COc1cc(Br)c2c(c1OS(=O)(=O)c1c(F)c(F)c(F)c(F)c1F)CN1CCc3cc4c(cc3C1C2)OCO4 (stereo not shown) [12f] | 0.53 ± 0.01 µM | negligible or unreliable | 10 µM | – | CC50 [4]: 9.9 ± 4.5 µM |
| COc1ccc2cc3[n+](cc2c1OC)CCc1cc2c(cc1-3)OCO2 [compound 9, berberine] | – | – | – | > 15 µM | – |
| COc1cc(Br)c2c(c1OS(=O)(=O)c1ccc(C)cc1)CN1CCc3cc4c(cc3C1C2)OCO4 (stereo not shown) [12e] | > 15 µM | – | – | – | Tdp1 inhibitory activity (in words) [1]: inactive |
| CC[C@@]1(O)C(=O)OCc2c1cc1n(c2=O)Cc2cc3c(CN(C)C)c(O)ccc3nc2-1 [topotecan, reference compound] | – | – | 2 µM | – | CC50 ([2]; read-out: CC50, μM–5 μM Tdp1 inhibitor (cytotoxic potential of topotecan)): 6.8 ± 1.1 µM; CC50 ([2]; read-out: CC50, μM–20 μM Tdp1 inhibitor (cytotoxic potential of topotecan)): 6.8 ± 1.1 µM |
| CCCS(=O)(=O)Oc1c(OC)ccc2c1CN1CCc3cc4c(cc3C1C2)OCO4 (stereo not shown) [11c] | > 15 µM | – | – | – | – |
| CCCS(=O)(=O)Oc1c(OC)ccc2cc3[n+](cc12)CCc1cc2c(cc1-3)OCO2 [10c, 10-Methoxy-2,3-methylenedioxy-9-((propane-1-sulfonyl)oxy)protoberberine chloride] | > 15 µM | – | – | – | – |
| COc1cc(Br)c2c(c1OS(=O)(=O)c1c(F)c(F)c(C(F)(F)F)c(F)c1F)CN1CCc3cc4c(cc3C1C2)OCO4 (stereo not shown) [12h] | 1.4 ± 0.3 µM | negligible or unreliable | 2.2 ± 1.5 µM | 1.38 ± 0.3 µM | – |
| COc1ccc2c(c1OS(=O)(=O)c1c(F)c(F)c(F)c(F)c1F)CN1CCc3cc4c(cc3C1C2)OCO4 (stereo not shown) [11f] | ~1 µM and 1 µM | significantly increased | 10 µM | 0.98 ± 0.2 µM | decrease of CC50 in the presence of topotecan (fold) ([2]; HeLa cells, 2 μM topotecan): three fold; cell death ([4]; 5 μM): 20%; cells that die ([4]; 20 μM): 90%; CC50 [4]: 11 ± 2 µM |
| CCS(=O)(=O)Oc1c(OC)ccc2cc3[n+](cc12)CCc1cc2c(cc1-3)OCO2 [10b, 9-Ethanesulfonyloxy-10-methoxy-2,3-methylenedioxyprotoberberine chloride] | > 15 µM | – | – | – | – |
| CCS(=O)(=O)Oc1c(OC)cc(Br)c2c1CN1CCc3cc4c(cc3C1C2)OCO4 (stereo not shown) [12b] | > 15 µM | – | – | – | – |
| CCCCS(=O)(=O)Oc1c(OC)ccc2cc3[n+](cc12)CCc1cc2c(cc1-3)OCO2 [10d, 9-(Butane-1-sulfonyl)oxy-10-methoxy-2,3-methylenedioxy protoberberine chloride] | > 15 µM | – | – | – | – |
| COc1ccc2cc3[n+](cc2c1OS(C)(=O)=O)CCc1cc2c(cc1-3)OCO2 [10a, 10-Methoxy-9-methanesulfonyloxy-2,3-methylenedioxyprotoberberine chloride] | > 15 µM | – | – | – | – |
| CCCS(=O)(=O)Oc1c(OC)cc(Br)c2c1CN1CCc3cc4c(cc3C1C2)OCO4 (stereo not shown) [12c] | 2.9 ± 1.3 µM | negligible or unreliable | > 100 µM | 2.86 ± 1.25 µM | Intrinsic toxicity to HeLa cells (in words) [4]: non-toxic up to 100 μM |
| CCCCS(=O)(=O)Oc1c(OC)ccc2c1CN1CCc3cc4c(cc3C1C2)OCO4 (stereo not shown) [11d] | > 15 µM | – | – | – | – |
| COc1ccc2c(c1OS(C)(=O)=O)CN1CCc3cc4c(cc3C1C2)OCO4 (stereo not shown) [11a] | > 15 µM | – | – | – | – |
| COc1ccc2c(c1OS(=O)(=O)c1ccc(C)cc1)CN1CCc3cc4c(cc3C1C2)OCO4 (stereo not shown) [11e] | > 15 µM | – | – | – | Tdp1 inhibitory activity (in words) [1]: inactive |
| COc1ccc2c(c1OS(=O)(=O)c1c(F)c(F)c(C(F)(F)F)c(F)c1F)CN1CCc3cc4c(cc3C1C2)OCO4 (stereo not shown) [11h] | 0.9 ± 0.2 µM | negligible or unreliable | 2.6 ± 0.1 µM | 0.93 ± 0.22 µM | – |

Reference: publication PMC7582571, “The First Berberine-Based Inhibitors of Tyrosyl-DNA Phosphodiesterase 1 (Tdp1), an Important DNA Repair Enzyme” (International Journal of Molecular Sciences, 2020)
